US3969529A, “Phenoxyacetic acid derivatives as diuretic agents” (C.E.R.P.H.A., priority 1969, dated 1976)

Legend:
[1] = Acute toxicity in mice (mortality after 24 h intravenous, 48 h per os); conditions: mouse, in vivo; for LD50 at 24 h: intravenous, mortality after 24 hours; for LD50 at 48 h: po, per os, mortality after 48 hours
Protocol: The three compounds were administered in the usual way to lots of 10 male mice of average weight 20 gm. Mortality was assessed after 24 hours for the intravenous toxicity and after 48 hours for toxicity per os.

dogs = test: Tolerance in dogs, 5 days; format: in vivo; conditions: 50 to 200 mg/kg via the digestive tract, three dogs
mice = test: Diuretic activity in mice; format: in vivo
Protocol: The three compounds CE 3598, CE 3624, CE 3649 can be shown to be diuretic at doses of from 1 - 50 mg/kg for the first.

[2] = tested on: dogs anaesthetized with mebubarbital; test: Diuretic activity in dogs anaesthetized with mebubarbital; format: in vivo
Protocol: The doses injected were of the order of 5 - 30 mg/kg. In most cases, diuresis was decupled for more than 2 hours.
The size of the increase may reach 6 to 7 times, even 10 times, the base diuresis.
In the case of intraduodenal injection or administration per os, the active doses are relatively the same as by intravenous administration.

non-anaesthetized dogs = test: Diuretic activity in non-anaesthetized dogs after hydration; format: in vivo
Protocol: After hydration with 500 ml physiological water and calculation of the diuresis for 2 hours, CE 3624, CE 3649 and CE 3598 were administered per os at doses of from 10 to 100 mg/kg.
For CE 3624 at 20 mg/kg, the diuresis was quintupled for 3 hours; the same result was obtained at 10 mg/kg. For CE 3649, at the same doses, the diuresis was only doubled. The doses of CE 3598 administered per os were 25,50 and 100 mg/kg. The increase in diuresis was effective during the first hour, and still notable 3 hours after administration of the product.

[3] = per os, 10 to 100 mg/kg, after hydration with 500 ml physiological water

O=C(O)COc1ccc(C(=O)c2ccco2)c(Cl)c1Cl [CE 3598, 4-(2-furylketo) 2,3-dichloro phenoxyacetic acid]
LD50 at 24 h [1]: 450 mg/kg | LD50 at 48 h [1]: 1500 mg/kg | symptoms indicating injurious activity (dogs): no symptoms which would indicate any injurious activity | diuretic activity (mice): diuretic | increase in diuresis 2 hours after injection ([2]; intravenous): still perceptible | dose provoking substantial diuretic action ([2]; intravenous, first 15 minutes): ~10 mg/kg | size of the increase over base diuresis, maximum ([2]; intravenous, may reach even): 10 times | diuretic action in the first 15 minutes ([2]; intravenous, of the order of 10 mg/kg): substantial diuretic action | increase in diuresis (non-anaesthetized dogs; [3]): strongly increased | increase in diuresis 3 hours after administration (non-anaesthetized dogs; per os, 25, 50 and 100 mg/kg): still notable | increase in diuresis during the first hour (non-anaesthetized dogs; per os, 25, 50 and 100 mg/kg): effective

O=C(O)COc1ccc(C(=O)c2cccs2)c(Cl)c1Cl [CE 3624, 4-(2-thienylketo) 2,3-dichloro phenoxyacetic acid]
LD50 at 24 h [1]: 225 mg/kg | LD50 at 48 h [1]: 1280 mg/kg | symptoms indicating injurious activity (dogs): no symptoms which would indicate any injurious activity | diuretic activity (mice): diuretic | increase in diuresis (mice; 25 mg/kg): doubled | increase in diuresis (mice; 50 mg/kg): quintupled | diuretic action ([2]; injected, of the order of 5 - 30 mg/kg): extremely substantial and precocious | duration of decupled diuresis ([2]; injected, of the order of 5 - 30 mg/kg, in most cases): more than 2 hours | increase in diuresis ([2]; injected, of the order of 5 - 30 mg/kg, in most cases, for more than 2 hours): decupled | increase in diuresis (non-anaesthetized dogs; per os, 10 mg/kg): quintupled | duration of quintupled diuresis (non-anaesthetized dogs; per os, 20 mg/kg): 3 h | increase in diuresis (non-anaesthetized dogs; per os, 20 mg/kg, for 3 hours): quintupled | increase in diuresis (non-anaesthetized dogs; [3]): strongly increased

Cc1ccc(C(=O)c2ccc(OCC(=O)O)c(Cl)c2Cl)s1 [CE 3649, 4-[2(5-methylthienyl)keto] 2,3-dichloro phenoxyacetic acid]
LD50 at 24 h [1]: 580 mg/kg | LD50 at 48 h [1]: 2900 mg/kg | symptoms indicating injurious activity (dogs): no symptoms which would indicate any injurious activity | diuretic activity (mice): diuretic | diuretic activity relative to CE 3624 (mice): a quarter of that of CE 3624 | increase in diuresis (non-anaesthetized dogs; [3]): strongly increased | increase in diuresis (non-anaesthetized dogs; per os, same doses as CE 3624 (20 and 10 mg/kg)): only doubled
